Data as given in patent US20130274210A1, “DENDRIMERS WITH A SACCHARIDE ENDING FOR ANTI-INFLAMMATORY PURPOSES” (UNIVERSITE PAUL SABATIER TOULOUSE III, priority 2010, published 2013).

How the values were obtained:
[1] = Solubility (properties of prepared molecules); type: physicochemical
[2] = test system: human dendritic cells stimulated with LPS; settings: stimulation by LPS, via DC-SIGN receptor; background statement; cited from earlier work

| Molecule | solubility [1] | production of IL-10 by human dendritic cells [2] | production of pro-inflammatory cytokines by human dendritic cells [2] |
| --- | --- | --- | --- |
| NNC(=O)CCCCCCCCOC1OC(CO)C(O)C(O)C1OC1OC(CO)C(O)C(O)C1O (centres unmarked) | soluble in H2O, MeOH, DMF |  |  |
| NNC(=O)CCCCCCCCOC1OC(CO)C(O)C(O)C1OC1OC(CO)C(O)C(O)C1OC1OC(CO)C(O)C(O)C1O (centres unmarked) | soluble in H2O, MeOH, DMF |  |  |
| NNC(=O)CCOC1OC(CO)C(O)C(O)C1O (centres unmarked) | soluble in H2O, MeOH, DMF |  |  |
| Mannosylated lipoarabinomannan [ManLAM] |  | increase in the production of IL-10 | decrease in the production of pro-inflammatory cytokines |
